Measurements published in publication PMC5106528, “High-Throughput Toxicity and Phenotypic Screening of 3D Human Neural Progenitor Cell Cultures on a Microarray Chip Platform” (Stem Cell Reports, 2016).
Like-named read-outs stand apart in the source and are kept apart here. Marks after values point to notes of the source that are not given here.

Assays:
[1] = test system: undifferentiated ReNcell VM NPCs; assay: cells
Procedure: (§1) On-chip cultures of undifferentiated and 10-day differentiated NPCs were stamped with WellChips filled with compound-containing solutions and incubated for 72 hr prior to viability assessment. Vehicle-control normalized viabilities were plotted against compound concentration to generate dose-response plots (Figures 5A and S4). […] The sigmoidal fits for undifferentiated and differentiating NPCs were compared to assess whether differential sensitivities (i.e., different IC50 values) existed for the screened compounds.
(§2) Cell viability was determined in 3D on-chip cultures using a mammalian cell viability assay (LIVE/DEAD, Invitrogen). Prior to the assay, dead cell controls were prepared with 30 min incubation in a WellChip containing either […] 0.5% (w/v) saponin-DMEM/F12 medium in its microwells. […] After staining, PillarChips were rinsed twice with warm DPBS and incubated in DPBS containing 50 mM trehalose (Sigma) for 10 min before rapid drying with nitrogen and storage in the dark. Dried PillarChips were imaged with a Thermo Scientific Cellomics ArrayScan VTI high-content system.
(§3) Undifferentiated and differentiated microchip cultures were prepared as described above. Chemicals were purchased from Sigma or the NIH Small Molecule Repository (Table S2). Concentrated stocks were prepared and diluted into ReNcell Maintenance Medium to prepare the highest screened concentration solution for each compound. Four-fold serial dilutions were made in ReNcell Maintenance Medium, with all solutions having a final concentration of 0.5% or 1% DMSO (v/v) and 20 μg/mL Matrigel. For undifferentiated cultures, the solutions also contained 20 ng/mL of EGF and FGF2. These solutions were printed into WellChips, covered with a gas-permeable membrane, and warmed at 37°C for at least 5 min before stamping with cells. Each WellChip contained six compounds each at six concentrations (n = 10 biological replicates for each concentration) and the appropriate medium containing 0.5% or 1% DMSO for vehicle and dead controls (n = 32 biological replicates per control). PillarChip cultures were incubated with compounds for 72 hr with daily medium exchange to freshly prepared WellChips containing compounds at the appropriate concentrations. […] On-chip toxicity screens were repeated three times for undifferentiated and differentiated cultures. […]

[2] = test system: differentiating ReNcell VM NPCs; assay: cells
Procedure: as §1, §2, §3

[3] = test system: undifferentiated ReNcell VM NPCs; assay: On-chip proliferation assay (EdU incorporation), undifferentiated NPCs; type: cell-based, human; conditions: for IC50 / Proliferation Effects Undifferentiating log(IC50 ± SEM): undifferentiated, 72 hr exposure, EdU for the final 24 hr, sigmoidal fit
Excerpt: (§4) Differential toxic effects could be explained, in part, as a consequence of the different proliferative states between the undifferentiated and differentiating NPCs. To this end, the thymidine analog, 5-ethynyl-2′-deoxyuridine (EdU), was used to detect actively proliferating cells on-chip following exposure to compounds or vehicle control to determine dose-response effects on proliferation (Figures 5B and S5), and sigmoidal curves were fit, when appropriate, to obtain IC50 values (Table 1). We found ∼60% of undifferentiated NPCs incorporated EdU over a 24-hr period as opposed to ∼3% of differentiating cultures.
(§5) Undifferentiated and differentiating cultures were screened for toxicity as described previously, except that after the first 48 hr of exposure 10 μM EdU (Click-iT EdU, Invitrogen) was added to the compound-containing medium for the final 24 hr. After 72 hr, on-chip cultures were fixed and processed as described previously for on-chip immunofluorescence; however, instead of antibody staining the cultures were incubated with solution containing Alexa Fluor 488-azide for 30 min as specified in the product manual. Cultures were then rinsed with DPBS for 30 min, incubated in DPBS with Hoechst 33342 (5 μg/mL) for 30 min, and washed in DPBS for 30 min before proceeding with a trehalose wash and drying as described previously. Nuclei were selected using Cellomics software from blue channel images to create a mask, which was used for identification of fluorescently labeled EdU in the green channel for quantification of actively proliferating cells over the 24-hr EdU exposure.

[4] = test system: differentiating ReNcell VM NPCs; assay: cells; type: cell-based, human; conditions: for IC50 / Proliferation Effects Differentiating log(IC50 ± SEM): differentiating, 72 hr exposure, EdU for the final 24 hr, sigmoidal fit
Excerpt: as §4, §5

[5] = Homo sapiens, ReNcell VM, 72 h, read-out: Viability Effects Undifferentiated IC50
[6] = Homo sapiens, ReNcell VM, 72 h, read-out: Viability Effects Undifferentiated log(IC50 ± SEM) (converted)
[7] = Homo sapiens, ReNcell VM, read-out: Viability Effects Differentiating IC50
[8] = Homo sapiens, ReNcell VM, read-out: Viability Effects Differentiating log(IC50 ± SEM) (converted)
[9] = Homo sapiens, ReNcell VM, read-out: Proliferation Effects Undifferentiating IC50
[10] = Homo sapiens, ReNcell VM, read-out: Proliferation Effects Undifferentiating log(IC50 ± SEM) (converted)
[11] = Homo sapiens, ReNcell VM, read-out: Proliferation Effects Differentiating IC50
[12] = Homo sapiens, ReNcell VM, read-out: Proliferation Effects Differentiating log(IC50 ± SEM) (converted)
[13] = read-out: Viability Effects Undifferentiated IC50, undifferentiated (+EGF/FGF2), 72 hr exposure, 1% Matrigel on-chip, sigmoidal fit
[14] = undifferentiated (+EGF/FGF2), 72 hr exposure, 1% Matrigel on-chip, sigmoidal fit
[15] = 10-day differentiated (−EGF/FGF2), 72 hr exposure, 1% Matrigel on-chip, sigmoidal fit
[16] = read-out: Viability Effects Differentiating IC50, 10-day differentiated (−EGF/FGF2), 72 hr exposure, 1% Matrigel on-chip, sigmoidal fit

| Structure (SMILES) | Normalized viability at Cmax, Undifferentiated, Mean ± SEM [1] | Normalized viability at Cmax, Differentiating, Mean ± SEM [2] | IC50 [1, 5] [µM] | IC50 [1, 6] [µM] | Normalized viability at Cmax, Undifferentiated, Mean ± SEM ([1]; human, 72 h) | IC50 [2, 7] [µM] | IC50 [2, 8] [µM] | Normalized viability at Cmax, Differentiating, Mean ± SEM ([2]; human, 72 h) | IC50 [3, 9] [µM] | IC50 [3, 10] [µM] | IC50 [4, 11] [µM] | IC50 [4, 12] [µM] | other results |
| --- | --- | --- | --- | --- | --- | --- | --- | --- | --- | --- | --- | --- | --- |
| O=C(O)CNCP(=O)(O)O [Glyphosate] | 0.01 ± 0.03 | 0.41 ± 0.14 |  |  |  |  |  |  |  |  |  |  |  |
| CC(COc1ccccc1Cc1ccccc1)N1CCCCC1 (stereo not drawn) [Benproperone, Benproperine] | 0.06 ± 0.52 | 0.71 ± 0.30 |  |  |  |  |  |  |  |  |  |  |  |
| O=c1[nH]cc(F)c(=O)[nH]1 [5-Fluorouracil] |  |  | 2.3 | 2.29 | 0.15 ± 0.10 | 2.3 | 2.24 | 0.81 ± 0.17 | 1.35 | 1.38 | 1.82 | 1.82 | Effect on cell viability (in words) [1]: nearly complete killing; Effect on cell viability (in words) [2]: minimally impacting; Effect on proliferation of NPC cultures (in words) ([3]; NPC cultures, state not specified): inhibit the proliferation; Effect on EdU incorporation (in words) ([3]; undifferentiated cultures): sharp decrease to no EdU incorporation; Effect on EdU incorporation (in words) ([4]; differentiating cultures): sharp decrease to no EdU incorporation |
| Nc1ccn([C@@H]2O[C@H](CO)[C@@H](O)[C@@H]2O)c(=O)n1 [Cytosine Arabinoside] | 0.40 ± 0.03 | 0.47 ± 0.12 |  |  |  |  |  |  |  |  |  |  | IC50 [1, 13]: 0.33 µM; Viability Effects Undifferentiated log(IC50 ± SEM) [1, 14]: −0.48 ± 0.17 ^b log(μM); Viability Effects Differentiating log(IC50 ± SEM) [2, 15]: 0.55 ± 0.55 log(μM); IC50 [2, 16]: 3.5 µM; Proliferation Effects Undifferentiating log(IC50 ± SEM) [3]: < −1 log(μM); Proliferation Effects Differentiating log(IC50 ± SEM) [4]: < −1 log(μM) |
| CC1=C(/C=C/C(C)=C/C=C/C(C)=C/C(=O)O)C(C)(C)CCC1 [Retinoic Acid] |  |  | 0.74 | 0.741 | 0.55 ± 0.16 | 47 | 50.1 | 0.50 ± 0.13 | 15 | 14.8 | 22 | 22.4 | Increase of the average number of proliferating cells ([4]; differentiated cultures, at lower concentrations): greater than 3 fold |
| [Cl][Cd][Cl] [Cadmium Chloride] |  |  |  |  |  |  |  |  |  |  |  |  | IC50 [1, 13]: 3.7 µM; Viability Effects Undifferentiated log(IC50 ± SEM) [1, 14]: 0.57 ± 0.3 log(μM); Viability Effects Differentiating log(IC50 ± SEM) [2, 15]: 0.88 ± 0.27 log(μM); IC50 [2, 16]: 7.6 µM; Proliferation Effects Undifferentiating log(IC50 ± SEM) [3]: 0.93 log(μM); IC50 ([3]; read-out: Proliferation Effects Undifferentiating IC50): 8.6 µM; Proliferation Effects Differentiating log(IC50 ± SEM) [4]: 1.18 log(μM); IC50 ([4]; read-out: Proliferation Effects Differentiating IC50): 15 µM |
| CN1CCN2c3ncccc3Cc3ccccc3C2C1 (stereo not drawn) [Mitrazepine, Mirtazapine] |  |  |  |  | 1.11 ± 0.09 |  |  |  |  |  |  |  |  |
| CC(=O)Nc1ccc(O)cc1 [Acetaminophen] |  |  | 1400 | 1260 | -0.16 ± 0.07 | 18000 | 20000 | -0.1 ± 0.03 | 1000 | 1040 | 18200 | 18200 | Cytotoxicity (in words) [1]: no cytotoxicity at functionally relevant concentrations |
| Fc1ccc([C@@H]2CCNC[C@H]2COc2ccc3c(c2)OCO3)cc1 [Paroxetine] |  |  |  |  | 0.07 ± 0.13 |  |  | 0.30 ± 0.38 |  |  |  |  |  |
